According to article PMC5563081, “Modulating Protein-Protein Interactions of the Mitotic Polo-like Kinases to Target Mutant KRAS” (Cell Chemical Biology, 2017):
Converted amounts (≈) assume the structure as drawn. Read-outs that look alike come from different tables or passages of the source.

Key:
[1] = system: SW48 parental (KRAS WT) cells; assay: Cell viability (SRB), SW48 parental; type: cell-based; conditions: Homo sapiens
Protocol: (§1) SW48 Parental, SW48 G12D, Panc-1, HPAF-II, Panc 02.03 and Panc 05.04 cell lines were seeded overnight at 5000 cells per well in a 96 well plate in recommended media (ATCC). Compounds were added the following day and viability was measured at 72h using the sulforhodamine B (SRB) colorimetric assay as follows. Cells were fixed by replacing media with 1% v/v Trichloroacetic Acid (TCA) (Sigma-Aldrich) at 4°C and incubated for 1h also at 4°C. Wells were washed thoroughly with copious amounts of deionised water before staining with Sulforhodamine B (SRB) (Sigma-Aldrich) solution (0.057% w/v in 1% v/v Acetic Acid (VWR)) for 30 min. Stain was aspirated and wells washed with several changes of 1% v/v Acetic Acid until unbound stain was removed, before air-drying. Bound stain was solubilized with 100μl / well 10mM Tris (pH 8.0) (Trizma Base (121.1) Sigma-Aldrich) with agitation for 10 min. Fluorescence intensity was recorded at Ex540nm / Em590nm using a BMG Pherastar Plus plate reader ([Vichai and Kirtikara, 2006]).

[2] = system: kinase catalytic domains of PLK1, PLK2, PLK3, PLK4 and 51 other protein kinases; assay: DiscoverX KINOMEscan panel of 55 kinases (statements in words); type: binding, human; conditions: cut-off <35% of control
Protocol: (§2) A panel of 55 proteins (comprising 51 human kinases structurally or functionally related to the PLKs, plus the kinase catalytic domains of PLK1, PLK2, PLK3 and PLK4) were selected for testing by DiscoverX using the KINOMEscan assay platform. Compounds were supplied as 40x DMSO stocks and were tested at a final concentration of 50μM for Poloppin and 5μM for Poloppin-II. Binding interactions were reported as percentage of control where lower numbers indicate stronger binding. A cut-off of <35% was applied to report significant binding.

[3] = system: murine pancreatic organoids KRAS MUT p53 MUT; assay: Viability of pancreatic organoids (CellTitre Glo 3D), KRAS G12D; type: cell-based; conditions: Mus musculus
Protocol: Organoid cultures were prepared from the pancreas of LSL-Trp53^R172H/+, Pdx-1-Cre (for Kras WT organoids) or LSL-Trp53^R172H/+, LSL-Kras^G12D/+, Pdx-1-Cre (for Kras^G12D organoids KPC3760 and KPC26684) strains ([Hingorani et al., 2005]). Pancreatic ducts were manually picked after tissue mincing and overnight enzymatic digestion with 0.012% (w/v) collagenase XI (Sigma) and 0.012% (w/v) dispase (GIBCO) in DMEM media containing 1% FBS (GIBCO), before seeding in growth-factor-reduced (GFR) Matrigel (BD) ([Boj et al., 2015]).
(§3) Pancreatic organoids were extracted and cultured as detailed above ([Boj et al., 2015]). In brief, pancreatic organoids were seeded at 600 cells per well in a 96 well plate and allowed to grow for 7 days with media replenishment on the 3rd day. Full-grown organoids were then treated with compounds for 72h and viability determined using CellTitre Glo 3D assay (Promega). For viability assays with c-MET siRNA, cells were reverse transfected in a 6 cm dish using Dharmafect 1 (GE Dharmacon) per manufacturer’s instructions. On the following day, cells were trypsinised and plated onto 96 well plates or 6 well plates. The 96 well plates were treated with a dose range of compounds or DMSO, and viability was determined via SRB colorimetric assay. Cells in the 6 well plates were collected at the end of experiment to corroborate knockdown of c-MET by Western blotting.

Panc-1 = assay: Cell viability (SRB), Panc-1; type: cell-based, human; conditions: Homo sapiens, PANC-1, 72 h; for GI50: read-out: Abs GI50
Protocol: as §1, §3
Cells were reverse-transfected with 50nM (SW48 parental, SW48 KRAS G12D and Panc-1) or 25nM (HeLa Flp-In T-REx parental cells) siRNA using Dharmafect (GE Dharmacon) as manufacturer’s recommendations. Where transfected cells were subsequently treated with compounds, the cells were allowed to settle overnight and then treated with compound at the indicated concentration the following day. Viability was assessed after 72 hrs, with the SRB colorimetric assay. Knockdown efficiencies were determined by Western blot or RT-qPCR. Oligos against the following target sequences were used. c-MET (Qiagen): […], […], […]. PLK1 (Qiagen): […]. PLK2 (SMARTpool; Dharmacon): ACACAGAAGGAGAACGAUA, CAUCAAUGAGGAUAGGAUA, CUGCCUAGUGUUACUGAUA, ACAAAGUCUACGCCGCAAA. PLK3 (SMARTpool; Dharmacon): GCGAGAAGAUCCUAAAUGA, GCAAGUGGGUUGACUACUC, GCACAUCCGUUGGCCAUCA, GACCUCAAGUUGGGAAAUU. PLK4 (Qiagen): […].

SgK110 = target: T1, SgK110 (Homo sapiens, UniProt P0C264); assay: DiscoverX KINOMEscan; type: binding; conditions: read-out: % Control
T1 construct: purchased DiscoverX KINOMEscan
T1 sequence (P0C264 whole entry): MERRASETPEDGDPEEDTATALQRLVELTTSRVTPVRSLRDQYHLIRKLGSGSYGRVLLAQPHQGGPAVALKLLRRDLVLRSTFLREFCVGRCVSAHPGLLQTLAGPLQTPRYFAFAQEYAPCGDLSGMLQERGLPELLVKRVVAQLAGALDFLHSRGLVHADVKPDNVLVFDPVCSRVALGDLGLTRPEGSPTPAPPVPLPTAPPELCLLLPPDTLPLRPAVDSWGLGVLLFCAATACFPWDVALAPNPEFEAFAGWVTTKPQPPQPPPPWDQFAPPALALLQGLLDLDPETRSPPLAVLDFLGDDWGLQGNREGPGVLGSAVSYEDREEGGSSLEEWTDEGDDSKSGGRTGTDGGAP
Protocol: as §2

AURKC = target: T2, AURKC (Homo sapiens, UniProt Q9UQB9); assay: DiscoverX KINOMEscan; type: binding; conditions: read-out: % Control
T2 construct: purchased DiscoverX KINOMEscan
T2 sequence (Q9UQB9 whole entry): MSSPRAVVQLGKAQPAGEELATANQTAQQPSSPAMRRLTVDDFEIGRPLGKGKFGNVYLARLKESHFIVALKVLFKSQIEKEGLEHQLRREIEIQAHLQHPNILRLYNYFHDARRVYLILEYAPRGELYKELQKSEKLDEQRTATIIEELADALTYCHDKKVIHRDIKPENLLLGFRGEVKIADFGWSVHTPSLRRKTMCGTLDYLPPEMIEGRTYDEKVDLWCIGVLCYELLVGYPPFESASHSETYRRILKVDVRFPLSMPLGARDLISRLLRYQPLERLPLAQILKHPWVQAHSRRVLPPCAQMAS
Protocol: as §2

WNK3 = target: T3, WNK3 (Homo sapiens, UniProt Q9BYP7); assay: DiscoverX KINOMEscan; type: binding; conditions: read-out: % Control
T3 construct: purchased DiscoverX KINOMEscan
T3 sequence (Q9BYP7 whole entry): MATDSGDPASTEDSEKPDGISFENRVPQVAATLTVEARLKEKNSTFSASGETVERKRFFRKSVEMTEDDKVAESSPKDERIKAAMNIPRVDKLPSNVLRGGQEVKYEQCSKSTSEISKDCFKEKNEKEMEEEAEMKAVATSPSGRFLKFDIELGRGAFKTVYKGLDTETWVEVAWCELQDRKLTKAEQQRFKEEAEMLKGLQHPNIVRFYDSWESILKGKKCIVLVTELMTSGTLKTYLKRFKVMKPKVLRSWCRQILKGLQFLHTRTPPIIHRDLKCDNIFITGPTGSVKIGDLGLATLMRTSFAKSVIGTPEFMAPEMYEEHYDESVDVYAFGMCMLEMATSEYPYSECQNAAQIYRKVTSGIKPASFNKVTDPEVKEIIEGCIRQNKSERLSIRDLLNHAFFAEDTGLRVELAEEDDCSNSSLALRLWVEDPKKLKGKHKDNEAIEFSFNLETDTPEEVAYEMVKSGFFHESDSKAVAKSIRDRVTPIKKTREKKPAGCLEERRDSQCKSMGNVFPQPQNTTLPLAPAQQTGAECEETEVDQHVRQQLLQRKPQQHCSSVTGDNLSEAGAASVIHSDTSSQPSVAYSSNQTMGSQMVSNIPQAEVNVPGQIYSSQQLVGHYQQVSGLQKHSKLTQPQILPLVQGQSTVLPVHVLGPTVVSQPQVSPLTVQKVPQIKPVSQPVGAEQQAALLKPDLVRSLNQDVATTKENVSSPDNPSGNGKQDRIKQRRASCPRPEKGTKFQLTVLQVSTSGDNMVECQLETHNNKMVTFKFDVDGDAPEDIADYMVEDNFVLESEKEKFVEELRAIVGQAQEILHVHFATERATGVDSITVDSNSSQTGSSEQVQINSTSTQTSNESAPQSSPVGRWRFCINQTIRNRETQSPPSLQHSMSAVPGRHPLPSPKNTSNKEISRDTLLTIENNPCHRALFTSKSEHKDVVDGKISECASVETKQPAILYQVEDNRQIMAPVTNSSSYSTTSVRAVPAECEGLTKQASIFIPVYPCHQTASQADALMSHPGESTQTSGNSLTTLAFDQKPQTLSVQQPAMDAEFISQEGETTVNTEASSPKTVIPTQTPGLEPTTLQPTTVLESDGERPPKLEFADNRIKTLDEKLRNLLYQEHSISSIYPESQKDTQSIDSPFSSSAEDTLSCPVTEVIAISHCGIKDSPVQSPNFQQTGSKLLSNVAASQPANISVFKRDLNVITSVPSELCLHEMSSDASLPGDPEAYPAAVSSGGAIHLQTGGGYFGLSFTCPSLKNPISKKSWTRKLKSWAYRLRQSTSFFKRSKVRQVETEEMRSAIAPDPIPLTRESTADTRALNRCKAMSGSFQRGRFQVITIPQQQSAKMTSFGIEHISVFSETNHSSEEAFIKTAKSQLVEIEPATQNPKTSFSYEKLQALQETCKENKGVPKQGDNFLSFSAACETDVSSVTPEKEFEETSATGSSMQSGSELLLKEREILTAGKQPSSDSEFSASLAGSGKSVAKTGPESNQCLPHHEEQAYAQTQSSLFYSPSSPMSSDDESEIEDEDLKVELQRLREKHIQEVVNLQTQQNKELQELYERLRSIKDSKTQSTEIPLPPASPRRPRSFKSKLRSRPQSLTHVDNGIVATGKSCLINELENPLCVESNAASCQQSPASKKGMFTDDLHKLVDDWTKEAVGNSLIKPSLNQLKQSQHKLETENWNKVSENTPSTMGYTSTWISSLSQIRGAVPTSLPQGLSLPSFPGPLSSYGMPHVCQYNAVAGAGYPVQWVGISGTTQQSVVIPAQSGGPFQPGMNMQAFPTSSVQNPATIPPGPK
Protocol: as §2

NEK2 = target: T4, NEK2 (Homo sapiens, UniProt P51955); assay: DiscoverX KINOMEscan; type: binding; conditions: read-out: % Control
T4 construct: purchased DiscoverX KINOMEscan
T4 sequence (P51955 whole entry): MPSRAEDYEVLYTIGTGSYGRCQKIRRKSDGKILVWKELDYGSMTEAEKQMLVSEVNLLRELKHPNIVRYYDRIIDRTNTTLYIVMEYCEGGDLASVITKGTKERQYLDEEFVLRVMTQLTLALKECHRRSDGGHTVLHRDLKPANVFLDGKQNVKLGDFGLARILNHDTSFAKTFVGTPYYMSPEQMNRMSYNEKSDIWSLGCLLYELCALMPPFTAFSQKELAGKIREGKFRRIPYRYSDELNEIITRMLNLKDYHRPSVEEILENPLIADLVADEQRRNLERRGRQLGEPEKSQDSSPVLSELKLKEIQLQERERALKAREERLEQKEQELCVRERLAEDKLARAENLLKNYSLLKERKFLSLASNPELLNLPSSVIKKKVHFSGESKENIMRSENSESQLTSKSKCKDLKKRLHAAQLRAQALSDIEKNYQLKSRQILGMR
Protocol: as §2

ULK2 = target: T5, ULK2 (Homo sapiens, UniProt Q8IYT8); assay: DiscoverX KINOMEscan; type: binding; conditions: read-out: % Control
T5 construct: purchased DiscoverX KINOMEscan
T5 sequence (Q8IYT8 whole entry): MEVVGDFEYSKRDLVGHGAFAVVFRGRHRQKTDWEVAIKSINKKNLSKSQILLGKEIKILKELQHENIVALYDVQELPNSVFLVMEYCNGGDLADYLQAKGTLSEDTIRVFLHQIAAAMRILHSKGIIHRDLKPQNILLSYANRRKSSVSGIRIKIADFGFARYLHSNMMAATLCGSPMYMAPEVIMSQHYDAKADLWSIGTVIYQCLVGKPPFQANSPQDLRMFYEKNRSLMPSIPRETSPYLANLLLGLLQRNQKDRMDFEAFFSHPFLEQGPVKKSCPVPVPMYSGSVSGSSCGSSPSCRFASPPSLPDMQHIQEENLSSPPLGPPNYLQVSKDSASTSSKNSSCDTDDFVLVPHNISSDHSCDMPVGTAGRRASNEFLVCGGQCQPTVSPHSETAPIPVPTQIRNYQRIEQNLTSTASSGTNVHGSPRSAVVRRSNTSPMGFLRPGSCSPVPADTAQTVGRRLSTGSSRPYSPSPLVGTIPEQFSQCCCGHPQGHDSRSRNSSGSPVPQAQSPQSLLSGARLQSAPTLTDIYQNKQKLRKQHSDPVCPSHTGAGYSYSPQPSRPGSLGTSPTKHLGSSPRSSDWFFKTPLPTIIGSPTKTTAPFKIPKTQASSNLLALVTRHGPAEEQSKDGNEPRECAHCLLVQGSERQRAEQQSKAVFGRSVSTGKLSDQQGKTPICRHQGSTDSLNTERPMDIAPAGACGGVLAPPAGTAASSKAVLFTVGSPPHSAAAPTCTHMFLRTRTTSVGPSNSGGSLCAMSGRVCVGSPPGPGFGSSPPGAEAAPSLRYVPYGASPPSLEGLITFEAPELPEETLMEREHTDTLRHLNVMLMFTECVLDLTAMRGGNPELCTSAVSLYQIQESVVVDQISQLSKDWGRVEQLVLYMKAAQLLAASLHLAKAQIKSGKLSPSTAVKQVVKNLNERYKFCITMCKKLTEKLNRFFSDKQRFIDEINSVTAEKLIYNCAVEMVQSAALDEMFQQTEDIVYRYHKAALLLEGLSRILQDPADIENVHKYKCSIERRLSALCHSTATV
Protocol: as §2

AAK1 = target: T6, AAK1 (Homo sapiens, UniProt Q2M2I8); assay: DiscoverX KINOMEscan; type: binding; conditions: read-out: % Control
T6 construct: purchased DiscoverX KINOMEscan
T6 sequence (Q2M2I8 whole entry): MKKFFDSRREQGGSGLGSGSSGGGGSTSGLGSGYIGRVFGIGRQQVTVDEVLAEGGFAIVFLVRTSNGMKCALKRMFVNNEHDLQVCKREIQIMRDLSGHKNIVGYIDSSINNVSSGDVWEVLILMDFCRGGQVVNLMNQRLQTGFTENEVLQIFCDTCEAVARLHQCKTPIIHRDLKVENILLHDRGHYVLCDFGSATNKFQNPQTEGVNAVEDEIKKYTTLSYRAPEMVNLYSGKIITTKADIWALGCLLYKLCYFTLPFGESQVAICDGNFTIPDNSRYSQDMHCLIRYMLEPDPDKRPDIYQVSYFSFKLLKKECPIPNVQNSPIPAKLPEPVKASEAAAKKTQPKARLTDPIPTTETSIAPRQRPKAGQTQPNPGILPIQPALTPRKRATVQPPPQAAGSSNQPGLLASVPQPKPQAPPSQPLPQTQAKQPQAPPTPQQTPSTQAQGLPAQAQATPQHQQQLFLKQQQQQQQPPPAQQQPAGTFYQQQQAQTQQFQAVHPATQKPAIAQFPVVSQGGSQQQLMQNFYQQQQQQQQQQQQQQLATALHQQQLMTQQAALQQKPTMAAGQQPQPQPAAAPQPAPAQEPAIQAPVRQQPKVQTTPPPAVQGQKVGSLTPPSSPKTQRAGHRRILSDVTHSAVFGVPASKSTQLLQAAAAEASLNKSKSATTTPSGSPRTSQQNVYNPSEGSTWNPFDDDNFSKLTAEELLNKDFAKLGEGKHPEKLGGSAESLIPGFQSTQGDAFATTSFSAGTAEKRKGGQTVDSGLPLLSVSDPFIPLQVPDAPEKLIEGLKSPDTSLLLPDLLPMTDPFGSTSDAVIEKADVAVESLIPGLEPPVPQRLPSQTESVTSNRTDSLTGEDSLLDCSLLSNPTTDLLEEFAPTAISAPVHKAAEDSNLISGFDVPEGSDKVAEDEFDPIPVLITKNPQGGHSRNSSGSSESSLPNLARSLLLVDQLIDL
Protocol: as §2

SW48 KRAS G12D cells = assay: Cell viability (SRB), SW48 KRAS G12D; type: cell-based; conditions: Homo sapiens
Protocol: as §1

Solubility in 5% DMSO = type: physicochemical; conditions: aqueous with cosolvent or surfactant or cyclodextrin, read-out: soluble at up to
HeLa cells = assay: Mitotic index assay in HeLa cells; type: cell-based, human; conditions: for EC50: Homo sapiens
Protocol: Cells were plated at 10 000/well in 96-well plates and incubated overnight. The following day compound stocks in DMSO were diluted in medium then added to cells with a maximum final DMSO concentration on cells of 0.2%. […] Cells were permeabilised with 0.1% Triton X-100 then incubated with anti-phospho-histone H3 (Ser10) antibody (Abcam ab5176). The cells were washed with PBS then incubated with AlexaFluor 488 labelled goat anti-rabbit IgG (Invitrogen A11034) in the presence of 4ug/ml Hoechst 33342 (Invitrogen H3570). Cells were washed in PBS then imaged on an Arrayscan VTi HCS instrument (Thermo Fisher) using the Target Activation V4 Bioapplication. A user-defined threshold was applied to identify mitotic cells based on the intensity of phospho-histone H3 staining.

[4] = HeLa, Figure 5A, read-out: MI EC50 (cellular assay for mitotic arrest)

For `CN(C)CCNC(=O)c1ccc(-c2ccc(-c3ccc(Cl)cc3)n2-c2ccccc2C(F)(F)F)cc1` [Poloppin-II], the GI50 ([1]; SW48 Parental, 72 hr, Figure 5D, read-out: GI50) was 0.0398 ± 0.00112 µM, the “binding to the kinase catalytic domains of PLK1–4, or to 51 other related kinases” value ([2]; Poloppin-II at 5 μM) was “no binding” and the GI50 ([3]; organoids KRAS MUT p53 MUT #2, n=2, read-out: Mean GI50) was 22.9 µM. It also gave a GI50 (Panc-1; Panc-1, individual compound, 72 hr, Figure 7G) of 0.314 µM, a remaining binding at 5 µM (SgK110; SgK110, Poloppin-II 5µM, hit <35%) of 100% and a remaining binding at 5 µM (AURKC; AURKC, Poloppin-II 5µM, hit <35%) of 85%. It also gave a remaining binding at 5 µM (WNK3; WNK3, Poloppin-II 5µM, hit <35%) of 100%, a remaining binding at 5 µM (NEK2; NEK2, Poloppin-II 5µM, hit <35%) of 94% and a remaining binding at 5 µM (ULK2; ULK2, Poloppin-II 5µM, hit <35%) of 100%. It also gave a remaining binding at 5 µM (AAK1; AAK1, Poloppin-II 5µM, hit <35%) of 100%, a GI50 (SW48 KRAS G12D cells; SW48 G12D, 72 hr, Figure 5D, read-out: GI50) of 0.0115 ± 0.00109 µM and a solubility (Solubility in 5% DMSO) of ~100 µM (≈ 51.2 µg/mL). For the same molecule, the EC50 (HeLa cells; [4]) was 0.069 µM and the EC50 (HeLa cells; HeLa cells, Figure 5B, read-out: half maximal effective concentration, cellular assay for mitotic arrest) was 0.061 µM.

For `O=C(O)CCc1ccc(-c2ccc(Br)cc2)n1-c1ccccc1C(F)(F)F` [Poloppin], the GI50 ([1]; SW48) was 13.7 ± 1.03 µM, the “binding to 51 other protein kinases” value ([2]; Poloppin at 50μM) was “No significant binding” and the “binding to the kinase catalytic domains of PLK1, PLK2, PLK3, PLK4” value ([2]; Poloppin at 50μM) was “does not bind”. It also gave a GI50 ([3]; read-out: Mean GI50, organoids KRAS MUT p53 MUT #1, n=2) of 22.9 µM, a GI50 ([3]; read-out: Mean GI50, organoids KRAS MUT p53 MUT #2, n=2) of 28.4 µM and a GI50 (Panc-1) of 33.4 µM. For the same molecule, the EC50 (Panc-1; read-out: EC50, % survival, Panc-1, All Stars control siRNA, 72 h) was 40.4 ± 1.03 µM, the EC50 (Panc-1; read-out: EC50, % survival, Panc-1, siMET, 72 h) was 16.8 ± 1.03 µM and the remaining binding at 50 µM (SgK110) was 94%. It also gave a remaining binding at 50 µM (AURKC) of 81%, a remaining binding at 50 µM (WNK3) of 100% and a remaining binding at 50 µM (NEK2) of 95%. For the same molecule, the remaining binding at 50 µM (ULK2) was 100%, the remaining binding at 50 µM (AAK1) was 92% and the GI50 (SW48 KRAS G12D cells; SW48) was 5.3 ± 1.03 µM. For the same molecule, the solubility (Solubility in 5% DMSO) was ≤ 1000 µM, the “EC50, mitotic index assay” value (HeLa cells; HeLa cells treated for 16 hr, Figure 5B) was 14.6 µM and the EC50 (HeLa cells; [4]) was 14.1 µM.
